Reference: paper PMC9571063 (Molecules, 2022)
Structures can show the parent of a compound that is named as a salt. Where two headings read alike, the source gives them in different places.

Columns and labels:
Hs_GSK3β = biological target: T1, Hs_GSK3β (Homo sapiens, UniProt P49841); assay: ADP-Glo kinase assay, primary screen; type: biochemical; conditions: n=2, read-out: % of residual activity Hs_GSK3β
T1 construct: host or cells: Sf9 insect cells (baculovirus)

[1] = cytotoxic assay, nuclei count (Hoechst, HCS); type: cell-based; conditions: human, 48 h treatment
Description: (§1) To complete our study, we performed a cytotoxicity screening of the 15 molecules, investigating 7 representative cancer cell lines. The compound’s effect on cell viability was evaluated on Huh-7 (hepatocellular carcinoma), CaCo2, HCT-116 (colorectal adenocarcinoma), MCF7, MDA-MB231, MDA-MB468 (breast carcinoma), PC3 (prostate carcinoma) and NCI-H727 (lung carcinoid). Human skin fibroblasts were used as reference for non-cancerous cells. Roscovitine, Doxorubicin and Taxol were used as positive controls. The cells were treated for 48 h with 25 µM compounds and fixed in cooled 90% ethanol/5% acetic acid for 20 min. The nuclei were stained with Hoechst 33342 and counted using HCS technology.
(§2) HuH7, CaCo-2, MDA-MB-231, HCT116, PC3, MCF7 and NCI-H727 cancer cell lines were obtained from the ECACC collection (Porton Down, UK). Cells were grown at 37 °C, 5% CO2 in ECACC recommended media: DMEM for HuH7, MDA-MB-231 and fibroblast, EMEM for MCF7and CaCo-2, McCoy’s for HCT116 and RPMI for PC3 and NCI-H727. All culture media were supplemented with 10% of FBS, 1% of penicillin-streptomycin and 2 mM glutamine.
(§3) Chemicals were solubilized in DMSO at a concentration of 10 mM (stock solution) and diluted in culture medium to the desired final concentrations.
[…] Cells were plated in 96 wells plates (4000 cells/well). Twenty-four hours after seeding, cells were exposed to chemicals. After 48 h of treatment, cells were washed in PBS and fixed in cooled 90% ethanol/5% acetic acid for 20 min and the nuclei were stained with Hoechst 33342 (B2261 Sigma). Image acquisition and analysis were performed using a CellomicsArrayScan VTI/HCS Reader (ThermoScientific, Waltham, MA, USA). The survival percentages were calculated as the percentage of cell number after compound treatment over cell number after DMSO treatment.

[2] = cytotoxic assay, nuclei count (Hoechst, HCS); type: cell-based; conditions: human, MDA-MB-231 cells (breast carcinoma); 48 h treatment; read-out: Cytotoxic studies IC50 MDA-MB-231
[3] = cytotoxic assay, nuclei count (Hoechst, HCS); type: cell-based, human; conditions: human, human skin fibroblasts (non-cancerous reference cells); 48 h treatment; some cells add low/moderate/high amplitude; read-out: Cytotoxic studies IC50 Fibroblasts
Description: as §1, §2, §3
(§4) The cytotoxic assay of chemical was performed at 25 µM. Cells were plated in 96 wells plates (4000 cells/well). Twenty-four hours after seeding, cells were exposed to chemicals. After 48 h of treatment, cells were washed in PBS and fixed in cooled 90% ethanol/5% acetic acid for 20 min and the nuclei were stained with Hoechst 33342 (B2261 Sigma). Image acquisition and analysis were performed using a CellomicsArrayScan VTI/HCS Reader (ThermoScientific, Waltham, MA, USA). The survival percentages were calculated as the percentage of cell number after compound treatment over cell number after DMSO treatment.

[4] = cytotoxic assay, nuclei count (Hoechst, HCS); type: cell-based; conditions: human, Caco-2 cells (colorectal adenocarcinoma); 48 h treatment; read-out: Cytotoxic studies IC50 Caco2
Hs_HASPIN = biological target: T2, Hs_HASPIN (Homo sapiens, UniProt Q8TF76); assay: ADP-Glo kinase assay, primary screen; type: biochemical; conditions: n=2, read-out: % of residual activity Hs_HASPIN
T2 construct: host or cells: bacteria
T2 sequence (Q8TF76 1-798): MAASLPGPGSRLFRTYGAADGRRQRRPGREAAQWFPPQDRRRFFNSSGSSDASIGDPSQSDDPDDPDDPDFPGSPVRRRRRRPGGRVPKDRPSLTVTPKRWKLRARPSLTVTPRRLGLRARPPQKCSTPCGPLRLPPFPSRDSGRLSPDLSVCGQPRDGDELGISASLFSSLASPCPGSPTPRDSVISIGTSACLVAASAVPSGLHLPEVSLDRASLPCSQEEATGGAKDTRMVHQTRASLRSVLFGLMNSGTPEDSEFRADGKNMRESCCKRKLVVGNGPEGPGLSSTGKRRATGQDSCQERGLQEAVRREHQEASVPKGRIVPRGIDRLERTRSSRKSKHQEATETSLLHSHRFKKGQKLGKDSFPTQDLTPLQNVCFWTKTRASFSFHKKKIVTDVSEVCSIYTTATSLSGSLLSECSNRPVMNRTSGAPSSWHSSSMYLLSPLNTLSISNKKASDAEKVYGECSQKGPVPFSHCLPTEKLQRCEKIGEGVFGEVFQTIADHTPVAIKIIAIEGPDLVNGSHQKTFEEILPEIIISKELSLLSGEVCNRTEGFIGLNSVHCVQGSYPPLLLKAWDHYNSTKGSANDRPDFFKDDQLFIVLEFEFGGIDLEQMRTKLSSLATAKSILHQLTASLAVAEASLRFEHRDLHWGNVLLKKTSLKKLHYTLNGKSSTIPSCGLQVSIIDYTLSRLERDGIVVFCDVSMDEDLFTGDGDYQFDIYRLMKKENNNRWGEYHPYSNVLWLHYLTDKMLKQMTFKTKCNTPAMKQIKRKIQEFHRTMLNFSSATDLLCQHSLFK

Hs_CDK9/CyclinT = biological target: T3, Hs_CDK9/CyclinT (Homo sapiens, UniProt P50750); assay: ADP-Glo kinase assay, primary screen; type: biochemical; conditions: n=2, read-out: % of residual activity Hs_CDK9/CyclinT
T3 construct: host or cells: Sf9 insect cells (baculovirus)

MmCLK1 = biological target: T4, MmCLK1 (Mus musculus, UniProt P22518); assay: ADP-Glo kinase assay; type: biochemical; conditions: for remaining activity at 1 µM / remaining activity at 10 µM: n=2, read-out: % of residual activity Mm_CLK1
T4 construct: host or cells: bacteria

Hs_CDK5/p25 = biological target: T5, Hs_CDK5/p25 (Homo sapiens, UniProt Q00535); assay: ADP-Glo kinase assay, primary screen; type: biochemical; conditions: n=2, read-out: % of residual activity Hs_CDK5/p25
T5 construct: host or cells: bacteria

[5] = cytotoxic assay, nuclei count (Hoechst, HCS); type: cell-based; conditions: human, HuH7 cells (hepatocellular carcinoma); 48 h treatment; read-out: Cytotoxic studies IC50 HuH7
[6] = cytotoxic assay, nuclei count (Hoechst, HCS); type: cell-based; conditions: human, MCF7 cells (breast carcinoma); 48 h treatment; read-out: Cytotoxic studies IC50 MCF7
Description: as §1, §2, §3, §4

Hs_CK1ε = biological target: T6, Hs_CK1ε (Homo sapiens, UniProt P49674); assay: ADP-Glo kinase assay, primary screen; type: biochemical; conditions: n=2, read-out: % of residual activity Hs_CK1ε
T6 construct: host or cells: Sf9 insect cells (baculovirus)

Hs_PIM1 = biological target: T7, Hs_PIM1 (Homo sapiens, UniProt P11309); assay: ADP-Glo kinase assay, primary screen; type: biochemical; conditions: n=2, read-out: % of residual activity Hs_PIM1
T7 construct: host or cells: Sf9 insect cells (baculovirus)

Rn_DYRK1A = biological target: T8, Rn_DYRK1A (Rattus norvegicus, UniProt Q63470); assay: ADP-Glo kinase assay, primary screen; type: biochemical; conditions: n=2, read-out: % of residual activity Rn_DYRK1A
T8 construct: host or cells: bacteria

HsDYRK1A = biological target: T9, HsDYRK1A (Homo sapiens, UniProt Q13627); assay: ADP-Glo kinase assay; type: biochemical; conditions: for remaining activity at 1 µM / remaining activity at 10 µM: n=2, read-out: % of residual activity Hs_DYRK1A
T9 construct: host or cells: Sf9 insect cells (baculovirus)

[7] = HCT116 cells (colorectal adenocarcinoma), read-out: Cytotoxic studies IC50 HCT116
[8] = MDA-MB-468 cells (breast carcinoma), read-out: Cytotoxic studies IC50 MDA-MB-468

T5 sequence (Q00535 whole entry): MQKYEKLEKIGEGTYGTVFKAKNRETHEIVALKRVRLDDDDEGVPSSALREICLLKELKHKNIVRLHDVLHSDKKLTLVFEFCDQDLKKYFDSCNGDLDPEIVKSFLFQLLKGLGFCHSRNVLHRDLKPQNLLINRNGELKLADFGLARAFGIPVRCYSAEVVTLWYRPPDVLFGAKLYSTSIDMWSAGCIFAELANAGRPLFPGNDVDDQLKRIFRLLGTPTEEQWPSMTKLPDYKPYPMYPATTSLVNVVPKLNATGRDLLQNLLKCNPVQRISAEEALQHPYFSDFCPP
T5 sequence (Q15078 99-307 partner limits assumed): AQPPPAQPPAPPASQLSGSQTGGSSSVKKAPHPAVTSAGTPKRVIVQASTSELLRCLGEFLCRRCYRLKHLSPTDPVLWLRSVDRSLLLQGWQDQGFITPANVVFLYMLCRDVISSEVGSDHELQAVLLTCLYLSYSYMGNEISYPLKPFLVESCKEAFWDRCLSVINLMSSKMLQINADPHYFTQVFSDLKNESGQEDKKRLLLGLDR
T7 sequence (P11309 whole entry): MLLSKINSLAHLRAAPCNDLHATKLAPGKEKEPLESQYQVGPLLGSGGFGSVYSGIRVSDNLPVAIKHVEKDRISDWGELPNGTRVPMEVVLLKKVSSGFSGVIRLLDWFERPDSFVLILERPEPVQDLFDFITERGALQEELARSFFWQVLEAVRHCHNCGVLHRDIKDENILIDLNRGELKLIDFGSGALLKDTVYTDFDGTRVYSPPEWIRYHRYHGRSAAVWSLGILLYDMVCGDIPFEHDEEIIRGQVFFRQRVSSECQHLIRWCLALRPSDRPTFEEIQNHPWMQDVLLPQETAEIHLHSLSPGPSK
T3 sequence (P50750 whole entry): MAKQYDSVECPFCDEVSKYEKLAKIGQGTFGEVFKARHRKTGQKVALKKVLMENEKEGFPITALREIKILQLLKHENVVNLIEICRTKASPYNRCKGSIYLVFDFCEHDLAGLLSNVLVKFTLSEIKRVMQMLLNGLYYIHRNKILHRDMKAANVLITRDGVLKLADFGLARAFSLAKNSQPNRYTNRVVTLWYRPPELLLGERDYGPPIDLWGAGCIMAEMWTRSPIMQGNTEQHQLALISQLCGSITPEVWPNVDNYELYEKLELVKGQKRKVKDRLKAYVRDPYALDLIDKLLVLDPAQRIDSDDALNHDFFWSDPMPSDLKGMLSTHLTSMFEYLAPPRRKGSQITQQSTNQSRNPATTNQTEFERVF
T3 sequence (O60563 whole entry partner): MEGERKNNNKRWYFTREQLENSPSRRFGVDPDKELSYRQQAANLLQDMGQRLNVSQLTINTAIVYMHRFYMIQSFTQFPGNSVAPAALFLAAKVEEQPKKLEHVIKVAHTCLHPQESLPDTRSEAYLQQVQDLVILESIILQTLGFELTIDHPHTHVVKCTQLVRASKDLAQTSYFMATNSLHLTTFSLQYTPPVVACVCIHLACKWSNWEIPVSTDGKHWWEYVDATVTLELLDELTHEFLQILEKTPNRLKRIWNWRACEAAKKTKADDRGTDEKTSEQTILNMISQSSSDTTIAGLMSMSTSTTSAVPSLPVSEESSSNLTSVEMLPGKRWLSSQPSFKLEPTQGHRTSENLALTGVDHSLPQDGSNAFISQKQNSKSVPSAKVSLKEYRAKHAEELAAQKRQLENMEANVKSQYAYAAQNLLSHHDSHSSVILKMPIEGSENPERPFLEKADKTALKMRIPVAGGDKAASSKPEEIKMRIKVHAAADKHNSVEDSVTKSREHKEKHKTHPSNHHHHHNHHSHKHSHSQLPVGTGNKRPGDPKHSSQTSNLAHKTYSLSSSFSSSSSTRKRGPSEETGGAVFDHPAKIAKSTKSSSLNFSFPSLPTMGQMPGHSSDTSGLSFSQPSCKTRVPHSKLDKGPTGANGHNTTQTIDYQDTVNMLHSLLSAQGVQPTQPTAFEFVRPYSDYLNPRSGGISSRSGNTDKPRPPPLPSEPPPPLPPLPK
T4 sequence (P22518 whole entry): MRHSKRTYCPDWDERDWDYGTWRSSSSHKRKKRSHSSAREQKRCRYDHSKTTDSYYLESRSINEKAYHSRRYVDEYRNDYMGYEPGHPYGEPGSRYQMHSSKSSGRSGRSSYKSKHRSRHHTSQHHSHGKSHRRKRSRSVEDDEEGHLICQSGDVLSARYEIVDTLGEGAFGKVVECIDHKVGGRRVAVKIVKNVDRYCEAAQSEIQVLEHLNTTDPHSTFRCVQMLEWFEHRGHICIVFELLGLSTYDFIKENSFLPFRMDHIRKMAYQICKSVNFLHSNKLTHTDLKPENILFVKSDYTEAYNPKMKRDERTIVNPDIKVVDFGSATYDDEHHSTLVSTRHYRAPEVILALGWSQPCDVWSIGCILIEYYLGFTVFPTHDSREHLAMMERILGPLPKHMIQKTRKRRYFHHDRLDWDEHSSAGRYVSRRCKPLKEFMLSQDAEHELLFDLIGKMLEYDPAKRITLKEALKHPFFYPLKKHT
T1 sequence (P49841 whole entry): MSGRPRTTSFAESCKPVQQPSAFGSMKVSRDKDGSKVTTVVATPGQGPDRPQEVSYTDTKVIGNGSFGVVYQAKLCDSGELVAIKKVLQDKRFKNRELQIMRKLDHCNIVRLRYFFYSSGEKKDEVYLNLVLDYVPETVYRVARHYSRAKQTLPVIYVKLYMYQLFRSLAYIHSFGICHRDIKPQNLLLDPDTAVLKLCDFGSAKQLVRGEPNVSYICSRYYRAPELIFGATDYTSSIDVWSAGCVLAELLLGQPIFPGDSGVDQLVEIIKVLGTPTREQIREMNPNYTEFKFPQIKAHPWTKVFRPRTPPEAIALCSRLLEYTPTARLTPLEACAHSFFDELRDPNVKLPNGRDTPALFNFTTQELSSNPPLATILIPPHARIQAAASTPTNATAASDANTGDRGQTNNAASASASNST
T6 sequence (P49674 whole entry): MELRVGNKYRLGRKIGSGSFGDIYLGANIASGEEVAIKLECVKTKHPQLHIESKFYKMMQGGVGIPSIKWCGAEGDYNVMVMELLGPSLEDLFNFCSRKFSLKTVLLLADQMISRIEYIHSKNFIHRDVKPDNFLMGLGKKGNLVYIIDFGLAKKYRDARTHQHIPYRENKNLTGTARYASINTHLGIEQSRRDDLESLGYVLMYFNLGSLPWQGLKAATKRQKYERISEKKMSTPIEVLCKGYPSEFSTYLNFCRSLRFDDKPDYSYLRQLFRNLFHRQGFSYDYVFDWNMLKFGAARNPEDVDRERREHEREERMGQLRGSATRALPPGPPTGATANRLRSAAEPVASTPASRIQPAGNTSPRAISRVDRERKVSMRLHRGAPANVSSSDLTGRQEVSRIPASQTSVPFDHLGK

Row | Structure (SMILES) | remaining activity at 1 µM (Hs_GSK3β) [%] | remaining activity at 10 µM (Hs_GSK3β) [%] | IC50 at 48 h [1, 7] [µM] | IC50 at 48 h [1, 8] [µM] | IC50 at 48 h [2] [µM] | IC50 at 48 h [3] [µM] | IC50 at 48 h [4] [µM] | remaining activity at 1 µM (Hs_HASPIN) [%] | remaining activity at 10 µM (Hs_HASPIN) [%] | remaining activity at 1 µM (Hs_CDK9/CyclinT) [%] | remaining activity at 10 µM (Hs_CDK9/CyclinT) [%] | remaining activity at 1 µM (MmCLK1) [%] | remaining activity at 10 µM (MmCLK1) [%] | remaining activity at 1 µM (Hs_CDK5/p25) [%] | remaining activity at 10 µM (Hs_CDK5/p25) [%] | IC50 at 48 h [5] [µM] | IC50 at 48 h [6] [µM] | remaining activity at 1 µM (Hs_CK1ε) [%] | remaining activity at 10 µM (Hs_CK1ε) [%] | remaining activity at 1 µM (Hs_PIM1) [%] | other results
1 | CC(C)(C)OC(=O)N[C@H]1CC[C@@H](n2cc(COc3cccc4cnc(Nc5cccc(Cl)c5)nc34)nn2)CC1 [15a, tert-Butyl ((cis)-4-(4-(((2-((3-chlorophenyl)amino)quinazolin-8-yl)oxy)methyl)-1H-1,2,3-triazol-1-yl)cyclohexyl)carbamate] | ≥ 100 | 86 | 7 | 18 | 3 | > 25 | > 25 | 92 | 74 | 64 | 55 | 98 | 60 | ≥ 100 | 96 | 7 | 23 | ≥ 100 | 97 | 86 | remaining activity at 10 µM (Hs_PIM1): 74%; remaining activity at 1 µM (Rn_DYRK1A): ≥ 100%; remaining activity at 10 µM (Rn_DYRK1A): 97%; remaining activity at 1 µM (HsDYRK1A): 95%; remaining activity at 10 µM (HsDYRK1A): 63%
2 | CC(C)(C)OC(=O)N[C@H]1CC[C@@H](n2cc(COc3cccc4cnc(Nc5cc(Cl)cc(Cl)c5)nc34)nn2)CC1 [15b, tert-Butyl ((cis)-4-(4-(((2-((3,5-dichlorophenyl)amino)quinazolin-8-yl)oxy)methyl)-1H-1,2,3-triazol-1-yl)cyclohexyl)carbamate] | 93 | 57 | > 25 | > 25 | 8 | > 25 | 21 | 89 | 58 | 92 | 61 | 96 | 73 | ≥ 100 | 68 | 20 | > 25 | ≥ 100 | 81 | 75 | remaining activity at 10 µM (Hs_PIM1): 73%; remaining activity at 1 µM (Rn_DYRK1A): 95%; remaining activity at 10 µM (Rn_DYRK1A): ≥ 100%; remaining activity at 1 µM (HsDYRK1A): ≥ 100%; remaining activity at 10 µM (HsDYRK1A): 74%
3 | N[C@H]1CC[C@@H](n2cc(COc3cccc4cnc(Nc5cccc(Cl)c5)nc34)nn2)CC1 [16a, 8-((1-((cis)-4-Aminocyclohexyl)-1H-1,2,3-triazol-4-yl)methoxy)-N-(3-chlorophenyl)quinazolin-2-amine hydrochloride] | 32 | 49 | 10 | 9 | 9 | 9 | 9 | 72 | 31 | 68 | 12 | 17 | 8 | 75 | 36 | 8 | 8 | 87 | 21 | 54 | IC50 (MmCLK1; mouse CLK1 orthologue, read-out: IC50 MmCLK1): 0.22 µM; remaining activity at 10 µM (Hs_PIM1): 14%; remaining activity at 1 µM (Rn_DYRK1A): 82%; remaining activity at 10 µM (Rn_DYRK1A): 33%; remaining activity at 1 µM (HsDYRK1A): 84%; IC50 (HsDYRK1A; 10 µM ATP, duplicate): 2.76 µM; remaining activity at 10 µM (HsDYRK1A): 36%
4 | CC(C)(C)OC(=O)N[C@H]1CC[C@H](n2cc(COc3cccc4cnc(Nc5cccc(Cl)c5)nc34)nn2)CC1 [18a, tert-Butyl ((trans)-4-(4-(((2-((3-chlorophenyl)amino)quinazolin-8-yl)oxy)methyl)-1H-1,2,3-triazol-1-yl)cyclohexyl)carbamate] | 88 | 60 | 5 | 15 | 7 | > 25 | 16 | 77 | 70 | 92 | 59 | 93 | 70 | 69 | 58 | 4 | > 25 | ≥ 100 | 78 | 77 | remaining activity at 10 µM (Hs_PIM1): 74%; remaining activity at 1 µM (Rn_DYRK1A): 92%; remaining activity at 10 µM (Rn_DYRK1A): ≥ 100%; remaining activity at 1 µM (HsDYRK1A): ≥ 100%; remaining activity at 10 µM (HsDYRK1A): 66%
